Measurements as given in ChEMBL document CHEMBL3739373, “1,2,3-Triazole derivatives as antitubercular agents: synthesis, biological evaluation and molecular docking study” (Medchemcomm, 2015).
≈ marks a conversion by molar mass, not a printed value.

Tests used:
[1] = tested on: Mycobacterium tuberculosis; experiment: Antitubercular activity against dormant phase Mycobacterium tuberculosis H37Ra ATCC 25177 incubated for 12 days by XTT reduction menadione assay; assay type: functional, organism-based; conditions: 288 h
[2] = Antioxidant activity assessed as DPPH radical scavenging activity after 30 mins by spectrophotometric analysis; assay type: physicochemical
[3] = Cytotoxicity against human THP1 cells assessed as growth inhibition after 48 hrs by MTT assay; assay type: cell-based, THP-1; conditions: for GI50 at 48 h: THP1 cells; for GI90: thp-1, 48 h
[4] = (§1) Cytotoxicity against human A549 cells assessed as growth inhibition after 48 hrs by MTT assay; assay type: cell-based; conditions: A549 cells
[5] = tested on: A549; experiment: as §1; assay type: cell-based; conditions: a549, 48 h
[6] = Cytotoxicity against human PANC1 cells assessed as growth inhibition after 48 hrs by MTT assay; assay type: cell-based, PANC-1; conditions: for GI50 at 48 h: PANC1 cells; for GI90: panc-1, 48 h
[7] = Selectivity index, ratio of GI50 for human THP1 cells to MIC for dormant phase Mycobacterium tuberculosis H37Ra ATCC 25177; assay type: toxicity, cell-based, THP-1; conditions: read-out: Selectivity Index
[8] = Selectivity index, ratio of GI50 for human A549 cells to MIC for dormant phase Mycobacterium tuberculosis H37Ra ATCC 25177; assay type: toxicity, cell-based; conditions: read-out: Selectivity Index
[9] = Selectivity index, ratio of GI50 for human PANC1 cells to MIC for dormant phase Mycobacterium tuberculosis H37Ra ATCC 25177; assay type: toxicity, cell-based, PANC-1; conditions: read-out: Selectivity Index

| SMILES | IC50 [1] | MIC [1] | IC50 [2] | also measured |
| --- | --- | --- | --- | --- |
| O=[N+]([O-])c1cccc(OCc2cn(Cc3cccc(Cl)c3)nn2)c1 | 26.6 µg/mL (≈ 77.2 µM) | > 100 µg/mL | 31.2 µg/mL (≈ 90.5 µM) |  |
| O=[N+]([O-])c1cccc(OCc2cn(Cc3ccc(Br)cc3)nn2)c1 | 43.2 µg/mL (≈ 111 µM) | > 100 µg/mL | 29.4 µg/mL (≈ 75.5 µM) |  |
| Cc1cc(OCc2cn(Cc3cccc([N+](=O)[O-])c3)nn2)ccc1Cl | 2.2 µg/mL (≈ 6.13 µM) | > 30 µg/mL | 15.6 µg/mL (≈ 43.5 µM) |  |
| Cc1cc(OCc2cn(Cc3ccc(Cl)cc3)nn2)ccc1Cl | 0.2 µg/mL (≈ 0.574 µM) | 26.9 µg/mL (≈ 77.2 µM) | 11.4 µg/mL (≈ 32.7 µM) | GI50 at 48 h [3]: 31.2 µg/mL (≈ 89.6 µM); GI90 [3]: 88.1 µg/mL (≈ 253 µM); GI50 at 48 h [4]: > 100 µg/mL; GI90 [5]: > 100 µg/mL; GI50 at 48 h [6]: > 100 µg/mL; GI90 [6]: > 100 µg/mL; selectivity ratio [7]: 1.2; selectivity ratio [8]: > 3.7; selectivity ratio [9]: > 3.7 |
| Clc1ccc(OCc2cn(Cc3cccc(Cl)c3)nn2)cc1 | 2.9 µg/mL (≈ 8.68 µM) | 25.8 µg/mL (≈ 77.2 µM) | 23.3 µg/mL (≈ 69.7 µM) | GI50 at 48 h [3]: 20.9 µg/mL (≈ 62.5 µM); GI90 [3]: > 100 µg/mL; GI50 at 48 h [4]: > 100 µg/mL; GI90 [5]: > 100 µg/mL; GI50 at 48 h [6]: > 100 µg/mL; GI90 [6]: > 100 µg/mL; selectivity ratio [7]: 0.8; selectivity ratio [8]: > 3.9; selectivity ratio [9]: > 3.9 |
| Clc1cccc(Cn2cc(COc3c(Cl)cc(Cl)cc3Cl)nn2)c1 | 2.2 µg/mL (≈ 5.46 µM) | > 30 µg/mL | 16.4 µg/mL (≈ 40.7 µM) |  |
| CC(=O)O[C@H]1C(=O)[C@@]2(C)[C@H]([C@H](OC(=O)c3ccccc3)[C@]3(O)C[C@H](OC(=O)[C@H](O)[C@@H](NC(=O)c4ccccc4)c4ccccc4)C(C)=C1C3(C)C)[C@]1(OC(C)=O)CO[C@@H]1C[C@@H]2O [PACLITAXEL] |  |  |  | GI50 at 48 h [3]: 0.14 µg/mL (≈ 0.164 µM); GI90 [3]: 5.82 µg/mL (≈ 6.82 µM); GI50 at 48 h [4]: 0.13 µg/mL (≈ 0.152 µM); GI90 [5]: 5.72 µg/mL (≈ 6.7 µM); GI50 at 48 h [6]: 0.004 µg/mL (≈ 0.00468 µM); GI90 [6]: 0.07 µg/mL (≈ 0.082 µM); selectivity ratio [7]: > 2330; selectivity ratio [8]: > 2330; selectivity ratio [9]: > 2330 |
| O=[N+]([O-])c1ccc(Cn2cc(COc3c(Cl)cc(Cl)cc3Cl)nn2)cc1 | 2.2 µg/mL (≈ 5.32 µM) | > 30 µg/mL | 28.9 µg/mL (≈ 69.9 µM) |  |
| Cc1ccc(OCc2cn(Cc3cccc([N+](=O)[O-])c3)nn2)cc1 | 2.4 µg/mL (≈ 7.4 µM) | > 30 µg/mL | 12.1 µg/mL (≈ 37.3 µM) |  |
| O=[N+]([O-])c1cccc(Cn2cc(COc3ccccc3)nn2)c1 | 2.4 µg/mL (≈ 7.73 µM) | > 30 µg/mL | 25.3 µg/mL (≈ 81.5 µM) |  |
| O=[N+]([O-])c1ccc(OCc2cn(Cc3ccc(Br)cc3)nn2)c(I)c1 | 25 µg/mL (≈ 48.5 µM) | > 30 µg/mL | 18.5 µg/mL (≈ 35.9 µM) |  |
| Cc1cc(C(C)(C)C)c(O)c(C(C)(C)C)c1 [BUTYLATED HYDROXYTOLUENE] |  |  | 16.5 µg/mL (≈ 74.9 µM) |  |
| CO[C@H]1/C=C/O[C@@]2(C)Oc3c(C)c(O)c4c(O)c(c(/C=N/N5CCN(C)CC5)c(O)c4c3C2=O)NC(=O)/C(C)=C\C=C\[C@H](C)[C@H](O)[C@@H](C)[C@@H](O)[C@@H](C)[C@H](OC(C)=O)[C@@H]1C [RIFAMPIN] | 0.002 µg/mL (≈ 0.00243 µM) | 0.04 µg/mL (≈ 0.0486 µM) |  |  |
| O=C1O[C@H]([C@@H](O)CO)C(O)=C1O [ASCORBIC ACID] |  |  | 12.7 µg/mL (≈ 72.1 µM) |  |
| O=[N+]([O-])c1cccc(OCc2cn(Cc3ccc(Cl)cc3)nn2)c1 | 53.4 µg/mL (≈ 155 µM) | > 100 µg/mL | 37.3 µg/mL (≈ 108 µM) |  |
| Cc1cc(OCc2cn(Cc3ccc(Br)cc3)nn2)ccc1Cl | 2.4 µg/mL (≈ 6.11 µM) | > 30 µg/mL | 16.5 µg/mL (≈ 42 µM) |  |
| O=[N+]([O-])c1ccc(Cn2cc(COc3cccc([N+](=O)[O-])c3)nn2)cc1 | > 100 µg/mL | > 100 µg/mL | 17.1 µg/mL (≈ 48.1 µM) |  |
| Cc1ccc(OCc2cn(Cc3ccc(Br)cc3)nn2)cc1 | 7.8 µg/mL (≈ 21.8 µM) | > 30 µg/mL | 16.3 µg/mL (≈ 45.5 µM) |  |
| O=[N+]([O-])c1cccc(Cn2cc(COc3c(Cl)cc(Cl)cc3Cl)nn2)c1 | 2.6 µg/mL (≈ 6.29 µM) | > 30 µg/mL | 29.2 µg/mL (≈ 70.6 µM) |  |
| O=[N+]([O-])c1cccc(Cn2cc(COc3cccc([N+](=O)[O-])c3)nn2)c1 | 8.3 µg/mL (≈ 23.4 µM) | > 30 µg/mL | 19.1 µg/mL (≈ 53.8 µM) |  |
